Laboratory results as given in patent publication US20250057821A1, “METHODS OF TREATING MYELOID MALIGNANCIES USING BCL-2 INHIBITOR” (BeiGene Switzerland GmbH, priority 2022, published 2025).

Legend:
patients with AML = assay: Clinical study: antileukemic activity of Compound A in combination with azacitidine in patients with AML; format: in vivo, human; settings: for CR / CR+CRh: 80 mg x 10 day cohort (n=17); for CR/CRh: in combination with azacitidine 75 mg/m2 x 7 days, data cutoff 5 Sep. 2022
Experimental: The clinical study was conducted to evaluate the combination of Compound A and azacitidine in patients with myeloid malignancies, including acute myeloid leukemia (AML) (either treatment-naïve [TN] unfit for intensive induction chemotherapy or relapsed/refractory [R/R]), myelodysplastic syndrome (MDS), or MDS/myeloproliferative neoplasm (MPN). Patients with AML who were treatment-naive unfit for intensive chemotherapy or who are relapsed/refractory were enrolled into the AML cohorts; and patients with myelodysplastic syndrome (MDS) or MDS/myeloproliferative neoplasm (MPN) who were treatment-naïve with high-risk disease or who were relapsed/refractory were enrolled into the MDS cohorts. The AML cohorts enrolls patients with treatment-naive (TN) AML who are unfit for intensive chemotherapy and relapsed/refractory (R/R) AML. The treatment cycles are of 28 days for all AML cohorts, unless recommended otherwise by the Safety Monitoring Committee (SMC). Part 1 AML (Dose Regimen Finding; N≈18 to 36, i.e., a minimum of 6 and a maximum of 12/cohort) studied the safety and tolerability of different dose regimens of Compound A in combination with a fixed dose of azacitidine at 75 mg/m^2 for 7 days. After 3 patients have completed the dose-limiting toxicities (DLT) window, the SMC reviewed all available data and considered the probability of DLT rate to be >20% and recommended whether or not to enroll additional patients (ie, up to 12). If no additional patients were required, the SMC would recommend whether or not to open a subsequent dose regimen in Part 1 and whether to open the dose regimen for Part 2 expansion. […] The window to assess dose-limiting toxicity (DLT) is up to Day 28 for nonhematologic toxicities and Day 42 or initiation of Cycle 2 for hematologic toxicities. The AML Part 1 dose regimen finding cohorts are as follows: • A) Compound A 40 mg daily×10 days with azacitidine (Ramp-up dosing of Compound A: 5 mg, 10 mg, 20 mg, 40 mg) • B) Compound A 80 mg daily×10 days with azacitidine (Ramp-up dosing of Compound A: 10 mg, 20 mg, 40 mg, 80 mg) • C) Compound A 160 mg daily×10 days with azacitidine (Ramp-up dosing of Compound A: 20 mg, 40 mg, 80 mg, 160 mg) • D) Compound A 160 mg daily×28 days with azacitidine (Ramp-up dosing of Compound A: 20 mg, 40 mg, 80 mg, 160 mg) • E) Compound A 320 mg daily×21 days with azacitidine (Ramp-up dosing of Compound A: 40 mg, 80 mg, 160 mg, and 320 mg) • F) Compound A 320 mg daily×28 days with azacitidine (Ramp-up dosing of Compound A: 40 mg, 80 mg, 160 mg, and 320 mg) In all Part 1 AML cohorts and the Part 2 cohort receiving the 28-day dose regimen, the initial dose of azacitidine is given 1 day prior to administration of Compound A (designated as Day 0) to compare baseline PK samples of azacitidine monotherapy with azacitidine in combination with Compound A, which starts on Day 1. In the subsequent cycles and all remaining cohorts, azacitidine administration start on Day 1 concurrently with Compound A. Dosing schema in Part I AML is shown in FIG. 1. Part 2 AML (Safety Expansion; N≈60) treated up to the cohorts each consisting of approximately 10 patients with dose regimens as defined in Part 1 and recommended by the SMC to proceed to Part 2. Part 2 of the study determined safety and antileukemic activity in a larger number of patients with a longer follow-up at dose regimens that were declared tolerable with early signs of activity in Part 1. At a given time, more than one dose regimen may be approved for expansion in Part 2; however, only a single Part 2 AML cohort was to be offered to prospective participants. Patients were preferentially enrolled in any open Part 1 cohort, if applicable. Each Part 2 cohort would continue to enroll up to 10 patients; this would include any additional patients enrolled in Part 1 but not needed for the initial SMC safety review of that cohort. […]

[1] = tested on: patients with AML or MDS or MDS/MPN; assay: Clinical study: safety and tolerability of Compound A in combination with azacitidine; format: in vivo, human; settings: treatment of AML or MDS or MDS/MPN, as of 4 Feb. 2023, 97 patients
Experimental: The clinical study was conducted to evaluate the combination of Compound A and azacitidine in patients with myeloid malignancies, including acute myeloid leukemia (AML) (either treatment-naïve [TN] unfit for intensive induction chemotherapy or relapsed/refractory [R/R]), myelodysplastic syndrome (MDS), or MDS/myeloproliferative neoplasm (MPN). Patients with AML who were treatment-naive unfit for intensive chemotherapy or who are relapsed/refractory were enrolled into the AML cohorts; and patients with myelodysplastic syndrome (MDS) or MDS/myeloproliferative neoplasm (MPN) who were treatment-naïve with high-risk disease or who were relapsed/refractory were enrolled into the MDS cohorts.
Part 1 AML (Dose Regimen Finding; N≈18 to 36, i.e., a minimum of 6 and a maximum of 12/cohort) studied the safety and tolerability of different dose regimens of Compound A in combination with a fixed dose of azacitidine at 75 mg/m^2 for 7 days. After 3 patients have completed the dose-limiting toxicities (DLT) window, the SMC reviewed all available data and considered the probability of DLT rate to be >20% and recommended whether or not to enroll additional patients (ie, up to 12). […]
All Part 1, Part 2, and Part 3 cohorts were assessed for DLTs. […]

[2] = R/R patients, in combination with azacitidine
[3] = TN patients, in combination with azacitidine

**Q.** With CC(C)c1ccccc1[C@@H]1CCCN1C1CC2(CCN(c3ccc(C(=O)NS(=O)(=O)c4ccc(NCC5CCC(C)(O)CC5)c([N+](=O)[O-])c4)c(Oc4cnc5[nH]ccc5c4)c3)CC2)C1 (stereo partly drawn) [Compound A, 2-((1H-pyrrolo[2,3-b]pyridin-5-yl)oxy)-N-((4-((((1r,4r)-4-hydroxy-4-methylcyclohexyl)methyl)amino)-3-nitrophenyl)sulfonyl)-4-(2-((S)-2-(2-isopropylphenyl)pyrrolidin-1-yl)-7-azaspiro[3.5]nonan-7-yl)benzamide] as the molecule, how does the CR (patients with AML; [2]) read?
**A.** 50%

**Q.** What about the “CR+CRh” value (patients with AML; [2]) of the same molecule?
**A.** 67%

**Q.** And the CR (patients with AML; [3])?
**A.** 73%

**Q.** And the “CR+CRh” value (patients with AML; [3])?
**A.** 73%

**Q.** And the CR/CRh (patients with AML; R/R AML patients, all dose cohorts)?
**A.** 50%

**Q.** What about the “CR+CRh in TN AML achieved by the end of cycle 1” value (patients with AML; TN AML patients, responders by end of cycle 1 out of all CR+CRh responders, in combination with azacitidine) of the same molecule?
**A.** 15 of 20

**Q.** What about the CR/CRh (patients with AML; TN unfit AML patients, all dose cohorts (40, 80, 160 mg x 10 days, 160 mg x 28 days)) of the same molecule?
**A.** 65%

**Q.** What about the safety analysis [1] of the same molecule?
**A.** well-tolerated and safe
